SMILES strings stand for the structures. Structures can show the parent of a compound that is named as a salt.

The target of the first assay is T1, Diphosphomevalonate decarboxylase (Streptococcus pneumoniae serotype 2 (strain D39 / NCTC 7466), UniProt A0A0H2ZN59).
T1 sequence (A0A0H2ZN59 whole entry): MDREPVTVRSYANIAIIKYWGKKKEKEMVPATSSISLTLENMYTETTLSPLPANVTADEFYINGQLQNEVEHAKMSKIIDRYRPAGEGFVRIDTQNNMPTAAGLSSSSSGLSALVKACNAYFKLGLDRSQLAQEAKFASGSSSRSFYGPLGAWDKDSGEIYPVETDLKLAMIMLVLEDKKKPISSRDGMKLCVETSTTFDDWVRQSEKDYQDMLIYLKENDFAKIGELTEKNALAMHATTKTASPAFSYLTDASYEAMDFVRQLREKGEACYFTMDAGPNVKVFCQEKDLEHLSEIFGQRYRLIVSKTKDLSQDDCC
Nature of the assay: S. pneumoniae DPM-DC inhibitor potency, dose response, biochemical, PK/LDH-coupled NADH fluorescence, hexokinase coupling counter-screen (AID 550).
Details: not given
For orientation: The purpose of a counterscreen is to sort out artefacts and off-target activity.
What is called IC50 is the midpoint of a concentration-inhibition curve. Read a low IC50 as greater potency in that assay. As for `Cc1ccsc1C1C(C(=O)O)c2ccccc2C(=O)N1C` (stereo unspecified) [1-keto-2-methyl-3-(3-methyl-2-thienyl)-3,4-dihydroisoquinoline-4-carboxylic acid], the IC50 was > 10000 µM.
Still for that read-out and setting: then `O=C(c1noc2c1CCCC2)N1CCCCC1` [1-piperidinyl(4,5,6,7-tetrahydro-1,2-benzoxazol-3-yl)methanone], with > 10000 µM; and `CC1(C)C(C=C(Cl)Cl)C1C(=O)N1CCN(c2ccccc2)CC1` (stereo unspecified) [1-{[3-(2,2-dichlorovinyl)-2,2-dimethylcyclopropyl]carbonyl}-4-phenylpiperazine], with > 10000 µM; and `c1ccc2c(c1)nnn2Cc1nnc2sc(-c3ccc4c(c3)OCCO4)nn12` [1-{[6-(2,3-dihydro-1,4-benzodioxin-6-yl)[1,2,4]triazolo[3,4-b][1,3,4]thiadiazol-3-yl]methyl}-1H-1,2,3-benzotriazole], with 83.8 µM.
The same measure, in the same setting: the same measure for `Nc1nc(N)c2sc3nc4c(cc3c2n1)CCC4` [2,3-Dihydro-1H-9-thia-5,7,10-triaza-cyclopenta[b]fluorene-6,8-diamine]: > 10000 µM; for `Cc1cc(C)c(S(=O)(=O)NCc2cn3c(C)csc3n2)cc1C` [2,4,5-trimethyl-N-[(3-methyl-6-imidazo[2,1-b]thiazolyl)methyl]benzenesulfonamide]: > 10000 µM; for `Cc1cc(O)cc(C)n1` [2,6-dimethyl-1H-pyridin-4-one]: > 10000 µM.
In the case of `Cc1cc(C)c2c(n1)nn1c(N3CCN(c4ccccc4)CC3)cc(C)nc21` [2,8,10-trimethyl-4-(4-phenyl-1-piperazinyl)pyrido[2,3]pyrazolo[2,4-a]pyrimidine], the IC50 turned out to be 12.7 µM.
Still for that read-out and setting: the same measure for `O=C(CSc1nnnn1Cc1ccccc1)NCCc1ccccc1` [2-(1-Benzyl-1H-tetrazol-5-ylsulfanyl)-N-phenethyl-acetamide]: > 10000 µM; for `O=C(NCc1ccco1)c1ccccc1NS(=O)(=O)c1ccc2c(c1)OCCO2` [2-(2,3-dihydro-1,4-benzodioxin-6-ylsulfonylamino)-N-(2-furanylmethyl)benzamide]: 42.4 µM.
Same read-out and setting: the same measure for `Cc1ccc(C)c(-c2nc3cc(N)ccc3o2)c1` [2-(2,5-Dimethyl-phenyl)-benzooxazol-5-ylamine]: 6.06 µM; for `CCOc1ccccc1OCC(=O)Nc1ccc(N2CCCCC2)cc1` [2-(2-ethoxyphenoxy)-N-(4-piperidin-1-ylphenyl)acetamide]: > 10000 µM; for `Cc1oc2cc(O)ccc2c(=O)c1N1C(=O)c2ccccc2C1=O` [2-(2-methyl-7-oxidanyl-4-oxidanylidene-chromen-3-yl)isoindole-1,3-dione]: 50.5 µM.
Still for that read-out and setting: then `Cc1ccccc1-c1nc2cc(N)ccc2o1` [2-(2-methylphenyl)-1,3-benzoxazol-5-amine], with 10.1 µM; and `O=c1c2ccccc2sn1-c1cc(S(=O)(=O)N2CCOCC2)ccc1N1CCOCC1` [2-(2-morpholin-4-yl-5-morpholin-4-ylsulfonyl-phenyl)-1,2-benzothiazol-3-one], with 15.4 µM; and `CCCOC(=O)Cc1n[nH]c(=O)[nH]c1=O` [2-(3,5-dioxo-2H-1,2,4-triazin-6-yl)acetic acid propyl ester], with > 10000 µM.
For the compound `CCc1nnc(NC(=O)CSc2nnc(COc3ccccc3)n2Cc2ccccc2)s1` [2-(4-Benzyl-5-phenoxymethyl-4H-[1,2,4]triazol-3-ylsulfanyl)-N-(5-ethyl-[1,3,4]thiadiazol-2-yl)-acetamide], the IC50 was > 10000 µM.
Still for that read-out and setting: the same measure for `CCc1nnc2sc(-c3ccc(NC(=O)CSc4ccc(Cl)cc4)cc3)nn12` [2-(4-chlorophenyl)sulfanyl-N-[4-(3-ethyl-[1,2,4]triazolo[3,4-b][1,3,4]thiadiazol-6-yl)phenyl]acetamide]: 39.6 µM.
On the same count and under the same terms, the same measure for `CCOC(=O)COc1ccc2nsnc2c1Cl` [2-(4-chloropiazthiol-5-yl)oxyacetic acid ethyl ester]: > 10000 µM; for `CCOc1ccc(-c2nnc(-c3ccncc3)o2)cc1` [2-(4-ethoxyphenyl)-5-pyridin-4-yl-1,3,4-oxadiazole]: 52.9 µM; for `CCOC(=O)c1cc2nc(Nc3ccc(OC)cc3)sc2s1` [2-(4-methoxyanilino)-5-thieno[3,2-d]thiazolecarboxylic acid ethyl ester]: 44.6 µM.
With `COc1ccc(-c2cc(C(=O)OCC(=O)N(C)C)c3ccccc3n2)cc1` [2-(4-methoxyphenyl)-4-quinolinecarboxylic acid [2-(dimethylamino)-2-oxoethyl] ester], 41.1 µM corresponded to half-maximal inhibition (IC50).
The same measure, in the same setting: then `Cc1ccc(-n2sc3ccccc3c2=O)cc1S(=O)(=O)N1CCCCC1` [2-(4-methyl-3-piperidin-1-ylsulfonyl-phenyl)-1,2-benzothiazol-3-one], with 3.73 µM; and `CCCc1nnc(NC(=O)CN2CCOCC2)s1` [2-(4-morpholinyl)-N-(5-propyl-1,3,4-thiadiazol-2-yl)acetamide;hydrochloride], with > 10000 µM; and `O=c1c2ccccc2sn1-c1ccc(S(=O)(=O)N2CCCCC2)cc1` [2-(4-piperidin-1-ylsulfonylphenyl)-1,2-benzothiazol-3-one], with 2.15 µM.
Same read-out and setting: the same measure for `c1ccc(N2CCN(c3cnccn3)CC2)nc1` [2-(4-pyridin-2-ylpiperazin-1-yl)pyrazine]: > 10000 µM; for `O=c1c2ccccc2sn1-c1ccc(S(=O)(=O)N2CCCC2)cc1` [2-(4-pyrrolidin-1-ylsulfonylphenyl)-1,2-benzothiazol-3-one]: 2.65 µM; for `Cc1cc(=O)oc2cc(OC(C)C(=O)O)c(Cl)cc12` (stereo unspecified) [2-(6-chloranyl-4-methyl-2-oxidanylidene-chromen-7-yl)oxypropanoic acid]: > 10000 µM.
`Cc1ccc2oc(=O)c3cnn(CC(=O)NC4CCN(Cc5ccccc5)CC4)c3c2c1` [2-(8-methyl-4-oxidanylidene-chromeno[4,3-c]pyrazol-1-yl)-N-[1-(phenylmethyl)piperidin-4-yl]ethanamide]: the half-inhibitory concentration (IC50) is > 10000 µM.
Still for that read-out and setting: the same measure for `CCCCCn1c(SCC#N)nc2cc(C(=O)NCC3CCCO3)ccc2c1=O` (stereo unspecified) [2-(cyanomethylsulfanyl)-4-oxidanylidene-N-(oxolan-2-ylmethyl)-3-pentyl-quinazoline-7-carboxamide]: > 10000 µM; for `Cc1cc(C(=O)CSc2nnnn2-c2ccc(Cl)cc2)c(C)n1CC1CCCO1` (stereo unspecified) [2-[1-(4-chlorophenyl)tetrazol-5-yl]sulfanyl-1-[2,5-dimethyl-1-(oxolan-2-ylmethyl)pyrrol-3-yl]ethanone]: > 10000 µM; for `Cc1cc(C)c2c(=O)n(CC(=O)N3CCC(Cc4ccccc4)CC3)sc2n1` [2-[2-(4-benzylpiperidin-1-yl)-2-oxoethyl]-4,6-dimethyl-[1,2]thiazolo[5,4-b]pyridin-3-one]: 221 µM.
Still for that read-out and setting: the same measure for `O=C(CN1c2cccc3cccc(c23)S1(=O)=O)N1CCOCC1` [2-[2-(4-morpholinyl)-2-oxoethyl]-2H-naphtho[1,8-cd]isothiazole 1,1-dioxide]: 21.9 µM; for `COC(=O)Cn1c(=NC(=O)CSC(C)=O)sc2ccccc21` [2-[2-[2-(acetylthio)-1-oxoethyl]imino-1,3-benzothiazol-3-yl]acetic acid methyl ester]: > 10000 µM; for `COc1ccc(C(O)Cn2c(=N)n(CCCN(C)C)c3ccccc32)cc1` (stereo unspecified) [2-[2-azanylidene-3-[3-(dimethylamino)propyl]benzimidazol-1-yl]-1-(4-methoxyphenyl)ethanol;hydrochloride]: > 10000 µM.
Regarding `COCCNC(=O)C(C#N)c1nc2ccccc2nc1N1CCCCCC1` (stereo unspecified) [2-[3-(1-azepanyl)-2-quinoxalinyl]-2-cyano-N-(2-methoxyethyl)acetamide], inhibition was half-maximal at 190 µM (IC50).
In turn, `COc1ccc(-c2ccc(-c3nnc(-c4ccncc4)o3)cc2)cc1` [2-[4-(4-methoxyphenyl)phenyl]-5-(4-pyridyl)-1,3,4-oxadiazole] had an IC50 of 123 µM.
`COC(=O)c1c(NC(=O)c2ccoc2C)sc2c1CCC2` [2-[(2-methyl-3-furoyl)amino]-5,6-dihydro-4H-cyclopenta[b]thiophene-3-carboxylic acid methyl ester] had an IC50 of 98.9 µM.
`CCOC(=O)CSc1cc(=O)n(C)c2cc(Cl)ccc12` [2-[(7-chloro-1-methyl-2-oxo-4-quinolinyl)thio]acetic acid ethyl ester]: the IC50 was > 10000 µM.
Same read-out and setting: then `CCOC(=O)c1sc2nc(SCC(=O)NCc3ccco3)n(Cc3ccccc3)c(=O)c2c1C` [2-[[2-(2-furanylmethylamino)-2-oxoethyl]thio]-5-methyl-4-oxo-3-(phenylmethyl)-6-thieno[2,3-d]pyrimidinecarboxylic acid ethyl ester], with 84.7 µM.
Same read-out and setting: the same measure for `COC(=O)c1ccccc1NC(=O)c1ccc2c(c1)C(=O)N(Cc1ccco1)C2=O` [2-[[2-(2-furfuryl)-1,3-diketo-isoindoline-5-carbonyl]amino]benzoic acid methyl ester]: 53.9 µM.
Consider `C=C(C)Cn1c(COc2ccccc2)nnc1SCC(=O)O` [2-[[4-(2-methylallyl)-5-(phenoxymethyl)-1,2,4-triazol-3-yl]thio]acetic acid], for which the IC50 is > 10000 µM.
On to `Cc1ccc2nc(-c3ccc(SCC(=O)O)nc3)[nH]c2c1` [2-[[5-(6-methyl-1H-benzimidazol-2-yl)-2-pyridinyl]thio]acetic acid], for which the IC50 came out at 9.87 µM.

Still in this assay, the particulars now being: inactive by the depositor's call.
For `Cc1cc(C)c2c(=O)n(CC(=O)NCCCN3CCN(c4ccccc4F)CC3)sc2n1` [2-(4,6-dimethyl-3-oxidanylidene-[1,2]thiazolo[5,4-b]pyridin-2-yl)-N-[3-[4-(2-fluorophenyl)piperazin-1-yl]propyl]ethanamide], 36.6 µM corresponded to half-maximal inhibition (IC50).
With `O=c1cccccc1NCc1ccccc1` [2-(benzylamino)cyclohepta-2,4,6-trien-1-one], the IC50 was found to be 278 µM.
The compound `O=c1c2ccccc2[se]n1-c1ccccc1` [2-Phenyl-benzo[d]isoselenazol-3-one] gave an IC50 of 0.513 µM.

(Values after BindingDB's records for doi:10.7270/Q2N014XN (Srmlsc, 2007).)
